For six compounds, Ki results are on record in BindingDB's records for doi:10.7270/Q20V8B7J (Nmmlsc, 2009).

The experiment deals with Ras-related C3 botulinum toxin substrate 1 (Mus musculus, UniProt P63001). The experiment in a line: activated mutant Rac1 GTP binding inhibitors, SAR follow-up, biochemical, additional analogs, multiplex bead flow cytometry (AID 2039).
Regarding `O=C1Nc2c(Br)cccc2C1=C1Nc2ccccc2C1=O`, the Ki was determined as 2510 nM.
`O=C1NC(=O)/C(=C2/C(=O)Nc3ccccc32)N1` gave a Ki of 1060 nM.
Under `O=C1Nc2ccc(Br)cc2C1=C1Nc2ccccc2C1=O` stands 1110 nM.
Compound `O=C1N=c2ccc(Br)cc2=C1c1[nH]c2ccccc2c1NO` [5-bromanyl-3-[3-(oxidanylamino)-1H-indol-2-yl]indol-2-one] registered a Ki of 2980 nM.
In the case of `O=C1N=c2c(F)cccc2=C1c1[nH]c2ccccc2c1NO` [7-fluoro-3-[3-(hydroxyamino)-1H-indol-2-yl]-2-indolone] it was 2870 nM; in that of `O=C1NC(=S)N/C1=C1\C(=O)Nc2ccccc21` [(3Z)-3-(5-oxo-2-sulfanylideneimidazolidin-4-ylidene)-1H-indol-2-one], 640 nM.
